Earlier results, collected in patent publication US11352671B2, “Predicting therapeutic response in Parkinson's disease” (Vanderbilt University, priority 2015, dated 2022).

Details: in vivo

N[C@@H](Cc1ccc(O)c(O)c1)C(=O)O [levodopa]
share that crosses the blood-brain barrier: 5-10%
